Patent US6582713B2, “Compositions and methods for promoting wound healing” (Univ. of Colorado - Colorado Springs, priority 2000, dated 2003)
“And” between values parts separate entries of the source, which are not always exact repeats. Equal values may be shown once. Marks after values point to notes of the source that are not given here.

Legend:
[1] = system: unsealed wound; assay: Effect of three day insulin treatment on unsealed wound in vivo; parameters: species or system mice; details: 100 micro liters applied to unsealed incision, photographs daily for one week
Description: Six mice were anesthetized with avetin Q 15-18 micro liters per gram body weight. An area on the back of the neck was swabbed with alcohol and shaved. A single vertical incision was made with scissors. One hundred micro liters of insulin was applied to three mice and 100 micro liters of water was applied to the other three. Photographs of the wounds were taken on a daily basis for one week.

[2] = Blood glucose level after treatment injected into incision sealed with cyanoacrylate; assay type: in vivo, mice; details: for Blood Glucose Level: individual mice
Method: Twelve mice were used in the study. Each mouses' blood glucose level was tested at the start of the study. The mice were then weighted and anesthetized. The back of the neck was shaved and a single incision was made. The incision was then sealed with cyanoacrylate polymer which was applied and allowed to set for 1½ minutes. The treatment (glucose, water, insulin, or insulin plus glucose) as described above were injected into the incision. […] On day 1, blood glucose was again measured and the wound was photographed. This was repeated on days 3, 5, and 7. Mouse numbers 1, 2, and 3 received glucose treatment. Mouse numbers 4, 5, and 6 received water (control). Mouse numbers 7, 8, and 9 received insulin plus glucose. Mouse numbers 10, 11, and 12 received insulin.

## insulin
[1]
  wound healing compared with water: More complete wound healing
[2]; 0 Hr (start of study, before treatment)
  Blood Glucose Level: 89 mg/dL and 104 mg/dL and 118 mg/dL
[2]; 0.5 Hr, incision sealed with cyanoacrylate
  Blood Glucose Level: 58 mg/dL and 36 mg/dL and 46 mg/dL
[2]; 3.0 Hr., incision sealed with cyanoacrylate
  Blood Glucose Level: <25 mg/dL
[2]; 21 Hr., incision sealed with cyanoacrylate
  Blood Glucose Level: <25 mg/dL (2×) and 113 mg/dL
[2]; 69 Hr., incision sealed with cyanoacrylate
  Blood Glucose Level: <25* mg/dL and 109 mg/dL
[2]; by 69 Hr., individual mouse
  death of mouse: Died
[2]; summary of Table 1
  effect on levels of blood glucose compared with control water treatment: dramatic effects
